# Test results: patent US20210230203A1, “Amphiphilic Kanamycin Compositions and Methods” (priority 2020, published 2021)
# Tests used:
# C. parapsilosis = experiment: MIC against various species, CLSI M27 & M38 (Table 4); settings: C. parapsilosis QC ATCC 22019; Table 4; RPMI 0.165M MOPS; 24-72 hours
# Saksenaea sp. = experiment: MIC against filamentous and dimorphic fungi, CLSI M27 & M38 (Table 3); assay type: cell-based, Saksenaea species; settings: 24-72 hours
# A. furnigatus = experiment: MIC against various species, CLSI M27 & M38 (Table 4); settings: 24-72 hours
# Candida glabrata = experiment: MIC against yeast, CLSI M27 & M38 (Table 2); settings: 24-72 hours
# [1] = test system: Fusarium graminearum B4-5A; experiment: microbe, parasite or virus in culture; assay type: cell-based; settings: Fusarium graminearum B4-5A
# Candida albicans MYA2876 = experiment: MIC against fungal strains (Table 1); assay type: cell-based; settings: Candida albicans MYA2876
# Cryptococcus neoformans = experiment: MIC against yeast, CLSI M27 & M38 (Table 2); settings: 24-72 hours
# Histoplasma capsulatum = experiment: microbe, parasite or virus in culture; assay type: cell-based; settings: Table 3, RPMI 0.165M MOPS, 24-72 hours
# [2] = test system: S. aureus (ATCC 33591) MRSA; assay type: cell-based
# Apaphysomyces = experiment: MIC against various species, CLSI M27 & M38 (Table 4); assay type: cell-based, Apophysomyces; settings: 24-72 hours
# Candida albicans 64124 = experiment: MIC against fungal strains (Table 1); assay type: cell-based
# Rhodotorula pilimanae = experiment: MIC against fungal strains (Table 1); assay type: cell-based
# Rhizopus arrhizus = experiment: MIC against filamentous and dimorphic fungi, CLSI M27 & M38 (Table 3); assay type: cell-based; settings: 24-72 hours
# S. aureus (ATCC 25923) = experiment: MIC against bacterial strains; assay type: cell-based
# C. albicans = experiment: MIC against various species, CLSI M27 & M38 (Table 4); settings: 24-72 hours
# L. prolificans = experiment: as above; settings: L. prolificans LP1; Table 4; RPMI 0.165M MOPS; 24-72 hours
# Candida guillermondii = experiment: MIC against yeast, CLSI M27 & M38 (Table 2); settings: 24-72 hours
# [3] = test system: S. aureus (ATCC 43300) MRSA; assay type: cell-based
# P. variotil = experiment: MIC against various species, CLSI M27 & M38 (Table 4); assay type: cell-based, Paecilomyces variotii; settings: P. variotil QC, RPMI 0.165M MOPS, 24-72 hours
# Fusarium = experiment: as above; assay type: cell-based; settings: 24-72 hours
# [4] = test system: Cryptococcus neoformans H99; experiment: MIC against fungal strains (Table 1); assay type: cell-based; settings: Cryptococcus neoformans H99
# C. krusei = experiment: MIC against yeast, CLSI M27 & M38 (Table 2); settings: C. krusei ATCC 6258; Table 2; RPMI 0.165M MOPS; 24-72 hours
# Coccidioldes sp. = experiment: microbe, parasite or virus in culture; assay type: cell-based, Coccidioides species; settings: Table 3, RPMI 0.165M MOPS, 24-72 hours
# [5] = Saksenaea sp. SK1, RPMI 0.165M MOPS
# [6] = Saksenaea sp. SK2, RPMI 0.165M MOPS
# [7] = Saksenaea sp. SK3, RPMI 0.165M MOPS
# [8] = A. furnigatus AF1, RPMI 0.165M MOPS
# [9] = A. furnigatus AF2, RPMI 0.165M MOPS
# [10] = A. furnigatus AF3, RPMI 0.165M MOPS
# [11] = Candida glabrata CG1, RPMI 0.165M MOPS
# [12] = Candida glabrata CG2, RPMI 0.165M MOPS
# [13] = Candida glabrata CG3, RPMI 0.165M MOPS
# [14] = Cryptococcus neoformans CN1, RPMI 0.165M MOPS
# [15] = Cryptococcus neoformans H99, RPMI 0.165M MOPS
# [16] = Cryptococcus neoformans USC1597, RPMI 0.165M MOPS
# [17] = Apaphysomyces APO1, RPMI 0.165M MOPS
# [18] = Apaphysomyces APO2, RPMI 0.165M MOPS
# [19] = Apaphysomyces APO3, RPMI 0.165M MOPS
# [20] = Rhizopus arrhizus 99-880, RPMI 0.165M MOPS
# [21] = Rhizopus arrhizus 99-892, RPMI 0.165M MOPS
# [22] = Rhizopus arrhizus RA1, RPMI 0.165M MOPS
# [23] = C. albicans CA1, RPMI 0.165M MOPS
# [24] = C. albicans CA2, RPMI 0.165M MOPS
# [25] = C. albicans CA3, RPMI 0.165M MOPS
# [26] = Candida guillermondii CGUI1, RPMI 0.165M MOPS
# [27] = Candida guillermondii CGUI2, RPMI 0.165M MOPS
# [28] = Candida guillermondii CGUI3, RPMI 0.165M MOPS
smiles,measurement,setting,value
CCCCCCCCCCCCCCCC(=O)NC[C@H]1O[C@H](O[C@H]2[C@H](O)[C@@H](O[C@H]3O[C@H](CO)[C@@H](O)[C@H](N)[C@H]3O)[C@H](N)C[C@@H]2N)[C@H](O)[C@@H](O)[C@@H]1O [KI06],Minimum inhibitory concentration 50%,C. parapsilosis,4 µg/mL
same,Minimum inhibitory concentration 100%,C. parapsilosis,8 µg/mL
same,Minimum inhibitory concentration 50%,Saksenaea sp.; [5],1 µg/mL
same,Minimum inhibitory concentration 100%,Saksenaea sp.; [5],1 µg/mL
same,Minimum inhibitory concentration 50%,Saksenaea sp.; [6],1 µg/mL
same,Minimum inhibitory concentration 100%,Saksenaea sp.; [6],2 µg/mL
same,Minimum inhibitory concentration 50%,Saksenaea sp.; [7],1 µg/mL
same,Minimum inhibitory concentration 100%,Saksenaea sp.; [7],2 µg/mL
same,Minimum inhibitory concentration 50%,A. furnigatus; [8],8 µg/mL
same,Minimum inhibitory concentration 100%,A. furnigatus; [8],8 µg/mL
same,Minimum inhibitory concentration 50%,A. furnigatus; [9],32 µg/mL
same,Minimum inhibitory concentration 100%,A. furnigatus; [9],32 µg/mL
same,Minimum inhibitory concentration 50%,A. furnigatus; [10],8 µg/mL
same,Minimum inhibitory concentration 100%,A. furnigatus; [10],16 µg/mL
same,Minimum inhibitory concentration 50%,Candida glabrata; [11],4 µg/mL
same,Minimum inhibitory concentration 100%,Candida glabrata; [11],8 µg/mL
same,Minimum inhibitory concentration 50%,Candida glabrata; [12],4 µg/mL
same,Minimum inhibitory concentration 100%,Candida glabrata; [12],4 µg/mL
same,Minimum inhibitory concentration 50%,Candida glabrata; [13],4 µg/mL
same,Minimum inhibitory concentration 100%,Candida glabrata; [13],4 µg/mL
same,Minimum inhibitory concentration,[1],4 µg/mL
same,Minimum inhibitory concentration,Candida albicans MYA2876,8 µg/mL
same,Minimum inhibitory concentration 50%,Cryptococcus neoformans; [14],4 µg/mL
same,Minimum inhibitory concentration 100%,Cryptococcus neoformans; [14],4 µg/mL
same,Minimum inhibitory concentration 50%,Cryptococcus neoformans; [15],4 µg/mL
same,Minimum inhibitory concentration 100%,Cryptococcus neoformans; [15],4 µg/mL
same,Minimum inhibitory concentration 50%,Cryptococcus neoformans; [16],4 µg/mL
same,Minimum inhibitory concentration 100%,Cryptococcus neoformans; [16],4 µg/mL
same,Minimum inhibitory concentration 50%,Histoplasma capsulatum; Histoplasma capsulatum HC1,2 µg/mL
same,Minimum inhibitory concentration 100%,Histoplasma capsulatum; Histoplasma capsulatum HC1,4 µg/mL
same,Minimum inhibitory concentration 50%,Histoplasma capsulatum; Histoplasma capsulatum HC2,4 µg/mL
same,Minimum inhibitory concentration 100%,Histoplasma capsulatum; Histoplasma capsulatum HC2,8 µg/mL
same,Minimum inhibitory concentration 50%,Histoplasma capsulatum; Histoplasma capsulatum HC3,2 µg/mL
same,Minimum inhibitory concentration 100%,Histoplasma capsulatum; Histoplasma capsulatum HC3,4 µg/mL
same,Minimum inhibitory concentration,[2],16 µg/mL
same,Minimum inhibitory concentration 50%,Apaphysomyces; [17],2 µg/mL
same,Minimum inhibitory concentration 100%,Apaphysomyces; [17],2 µg/mL
same,Minimum inhibitory concentration 50%,Apaphysomyces; [18],1 µg/mL
same,Minimum inhibitory concentration 100%,Apaphysomyces; [18],4 µg/mL
same,Minimum inhibitory concentration 50%,Apaphysomyces; [19],1 µg/mL
same,Minimum inhibitory concentration 100%,Apaphysomyces; [19],4 µg/mL
same,Minimum inhibitory concentration,Candida albicans 64124,8 µg/mL
same,Minimum inhibitory concentration,Rhodotorula pilimanae,4 µg/mL
same,Minimum inhibitory concentration 50%,Rhizopus arrhizus; [20],2 µg/mL
same,Minimum inhibitory concentration 100%,Rhizopus arrhizus; [20],4 µg/mL
same,Minimum inhibitory concentration 50%,Rhizopus arrhizus; [21],2 µg/mL
same,Minimum inhibitory concentration 100%,Rhizopus arrhizus; [21],4 µg/mL
same,Minimum inhibitory concentration 50%,Rhizopus arrhizus; [22],2 µg/mL
same,Minimum inhibitory concentration 100%,Rhizopus arrhizus; [22],4 µg/mL
same,Minimum inhibitory concentration,S. aureus (ATCC 25923),16 µg/mL
same,Minimum inhibitory concentration 50%,C. albicans; [23],4 µg/mL
same,Minimum inhibitory concentration 100%,C. albicans; [23],4 µg/mL
same,Minimum inhibitory concentration 50%,C. albicans; [24],4 µg/mL
same,Minimum inhibitory concentration 100%,C. albicans; [24],8 µg/mL
same,Minimum inhibitory concentration 50%,C. albicans; [25],2 µg/mL
same,Minimum inhibitory concentration 100%,C. albicans; [25],4 µg/mL
same,Minimum inhibitory concentration 50%,L. prolificans,2 µg/mL
same,Minimum inhibitory concentration 100%,L. prolificans,2 µg/mL
same,Minimum inhibitory concentration 50%,Candida guillermondii; [26],4 µg/mL
same,Minimum inhibitory concentration 100%,Candida guillermondii; [26],8 µg/mL
same,Minimum inhibitory concentration 50%,Candida guillermondii; [27],4 µg/mL
same,Minimum inhibitory concentration 100%,Candida guillermondii; [27],8 µg/mL
same,Minimum inhibitory concentration 50%,Candida guillermondii; [28],4 µg/mL
same,Minimum inhibitory concentration 100%,Candida guillermondii; [28],8 µg/mL
same,Minimum inhibitory concentration,[3],16 µg/mL
same,Minimum inhibitory concentration 50%,P. variotil,8 µg/mL
same,Minimum inhibitory concentration 100%,P. variotil,8 µg/mL
same,Minimum inhibitory concentration 50%,"Fusarium; Fusarium FO1, RPMI 0.165M MOPS",8 µg/mL
same,Minimum inhibitory concentration 100%,"Fusarium; Fusarium FO1, RPMI 0.165M MOPS",8 µg/mL
same,Minimum inhibitory concentration 50%,"Fusarium; Fusarium FO2, RPMI 0.165M MOPS",4 µg/mL
same,Minimum inhibitory concentration 100%,"Fusarium; Fusarium FO2, RPMI 0.165M MOPS",8 µg/mL
same,Minimum inhibitory concentration 50%,"Fusarium; Fusarium FS1, RPMI 0.165M MOPS",4 µg/mL
same,Minimum inhibitory concentration 100%,"Fusarium; Fusarium FS1, RPMI 0.165M MOPS",8 µg/mL
same,Minimum inhibitory concentration,[4],4 µg/mL
same,Minimum inhibitory concentration 50%,C. krusei,8 µg/mL
same,Minimum inhibitory concentration 100%,C. krusei,8 µg/mL
same,Minimum inhibitory concentration 50%,Coccidioldes sp.; Coccidioldes sp. Cocci1,4 µg/mL
same,Minimum inhibitory concentration 100%,Coccidioldes sp.; Coccidioldes sp. Cocci1,8 µg/mL
same,Minimum inhibitory concentration 50%,Coccidioldes sp.; Coccidioldes sp. Cocci2,4 µg/mL
same,Minimum inhibitory concentration 100%,Coccidioldes sp.; Coccidioldes sp. Cocci2,8 µg/mL
same,Minimum inhibitory concentration 50%,Coccidioldes sp.; Coccidioldes sp. DI17-143,4 µg/mL
same,Minimum inhibitory concentration 100%,Coccidioldes sp.; Coccidioldes sp. DI17-143,8 µg/mL
